Structures are written as SMILES. Where “and” joins values, the source holds several entries; their conditions need not be identical. Equal values may be shown once.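 Growth conditions: 96-well plates. Treatment: test compound, 48 hours, 5 concentrations. Analysis: linear interpolation between bracketing concentrations; unreached endpoints set to highest concentration. Here, GI50 denotes the concentration required for 50% inhibition of growth. TGI marks complete inhibition of growth.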

One test concerns 786-0 renal. Kind of test: NCI anticancer screen, dose series, 48 h.
As to `c1ccc2[nH]c(-c3ccc(N4CCN(c5ccc(-c6nc7ccccc7[nH]6)cc5)CC4)cc3)nc2c1`, the GI50 was 36.9 µM and the TGI was more than 100 µM.
For `CCN(CC)CCOc1ccc(C(=C(C)c2ccc(Cl)cc2)c2ccc(OCCN(CC)CC)cc2)cc1` the same measures were 0.597 µM and 1.12 µM.
For the compound `C[C@]12CC[C@H]3[C@@H](CCC4=CC(=O)CC[C@@H]43)[C@@H]1CC[C@@H]2OC(=O)N(CCCl)N=O`, the GI50 was 0.0723 µM and the TGI came out at 4.82 µM.
On to `CC12CCC(=O)C=C1CCC1C2CCC2(C)C(C(=O)Cn3cnc4c(=S)nc[nH]c43)CCC12` (configuration not stated), for which the TGI was more than 100 µM.
As for `CCc1ccc(NCc2cc(OC)c(OC)c(OC)c2)cc1`, the GI50 is 0.369 µM and 0.77 µM; the TGI was 17.3 µM and > 38.5 µM.
As to `Cn1c(=O)c2[nH]c(/N=N/N3CCN(CCO)CC3)nc2n(C)c1=O`, the TGI is more than 100 µM.
Turning to `c1ccc2nc(Cn3c[n+](Cc4ccc5ccccc5n4)c4ccccc43)ccc2c1`, the GI50 is 4.2 µM and the TGI worked out at 16.4 µM.
Turning to `O=C(O)CS(=O)(=O)C(c1ccccc1)c1ccccc1`, the TGI is more than 100 µM.
Turning to `C=C(C)[C@@H]1CC[C@]2(C(=O)NCCCN)CC[C@]3(C)[C@H](CC[C@@H]4[C@@]5(C)CC[C@H](O)C(C)(C)[C@@H]5CC[C@]43C)[C@@H]12`, the GI50 was 23.2 µM and the TGI was 63.4 µM.
Consider `O=C(Nc1cccc(Cl)c1)Nc1ncc(CCNc2ncnc3ccsc23)s1`, for which the GI50 was 7.55 µM and 6.41 µM; the TGI is 41.1 µM and > 10 µM.
With `CCOC(=O)Cc1c[nH]c(=S)[nH]c1=O`, the GI50 is more than 100 µM and the TGI was more than 100 µM.
For `CCc1c(C)[nH]c(/C=C2\N=C(c3ccc[nH]3)C=C2OC)c1C`, the GI50 was 0.177 µM and the TGI was found to be 0.675 µM.

Another test relates to A498 renal. Kind of test: NCI anticancer screen, dose series, 48 h.
For `c1ccc2[nH]c(-c3ccc(N4CCN(c5ccc(-c6nc7ccccc7[nH]6)cc5)CC4)cc3)nc2c1`, the GI50 was 54.8 µM and the TGI is more than 100 µM.
For `CCN(CC)CCOc1ccc(C(=C(C)c2ccc(Cl)cc2)c2ccc(OCCN(CC)CC)cc2)cc1` the same measures were 1.79 µM and 6.12 µM.
For the compound `C[C@]12CC[C@H]3[C@@H](CCC4=CC(=O)CC[C@@H]43)[C@@H]1CC[C@@H]2OC(=O)N(CCCl)N=O`, the GI50 is 1.9 µM and the TGI amounted to 5.51 µM.
Consider `CC12CCC(=O)C=C1CCC1C2CCC2(C)C(C(=O)Cn3cnc4c(=S)nc[nH]c43)CCC12` (configuration not stated), for which the TGI stood at 79 µM.
In the case of `CCc1ccc(NCc2cc(OC)c(OC)c(OC)c2)cc1`, the GI50 was 2.28 µM and 3.85 µM; the TGI is 20.6 µM and 49 µM.
As to `Cn1c(=O)c2[nH]c(/N=N/N3CCN(CCO)CC3)nc2n(C)c1=O`, the TGI is more than 100 µM.
`c1ccc2nc(Cn3c[n+](Cc4ccc5ccccc5n4)c4ccccc43)ccc2c1`: the GI50 was 2.24 µM and the TGI turned out to be 10.2 µM.
As to `O=C(O)CS(=O)(=O)C(c1ccccc1)c1ccccc1`, the TGI was more than 100 µM.
Consider `C=C(C)[C@@H]1CC[C@]2(C(=O)NCCCN)CC[C@]3(C)[C@H](CC[C@@H]4[C@@]5(C)CC[C@H](O)C(C)(C)[C@@H]5CC[C@]43C)[C@@H]12`, for which the GI50 is 22.9 µM and the TGI was 49.2 µM.
With `O=C(Nc1cccc(Cl)c1)Nc1ncc(CCNc2ncnc3ccsc23)s1`, the GI50 is 2.51 µM and 1.17 µM; the TGI was 17.9 µM and > 10 µM.
For the compound `CCOC(=O)Cc1c[nH]c(=S)[nH]c1=O`, the GI50 is more than 100 µM and the TGI is more than 100 µM.
`CCc1c(C)[nH]c(/C=C2\N=C(c3ccc[nH]3)C=C2OC)c1C`: the GI50 is 6.87 µM and the TGI came out at 21.5 µM.

The next test has as its system A549 NSCLC. The experiment in a line: NCI anticancer screen, dose series, 48 h.
Consider `c1ccc2[nH]c(-c3ccc(N4CCN(c5ccc(-c6nc7ccccc7[nH]6)cc5)CC4)cc3)nc2c1`, for which the GI50 is more than 100 µM and the TGI was more than 100 µM.
With `CCN(CC)CCOc1ccc(C(=C(C)c2ccc(Cl)cc2)c2ccc(OCCN(CC)CC)cc2)cc1`, the GI50 was 0.632 µM and the TGI turned out to be 1.31 µM.
`C[C@]12CC[C@H]3[C@@H](CCC4=CC(=O)CC[C@@H]43)[C@@H]1CC[C@@H]2OC(=O)N(CCCl)N=O`: the GI50 was 0.393 µM and the TGI is 14.8 µM.
As to `CC12CCC(=O)C=C1CCC1C2CCC2(C)C(C(=O)Cn3cnc4c(=S)nc[nH]c43)CCC12` (configuration not stated), the TGI was more than 100 µM.
In the case of `CCc1ccc(NCc2cc(OC)c(OC)c(OC)c2)cc1`, the GI50 is 0.693 µM and 0.216 µM; the TGI is 98.2 µM and > 92.2 µM.
In turn, `Cn1c(=O)c2[nH]c(/N=N/N3CCN(CCO)CC3)nc2n(C)c1=O` displayed a TGI of more than 100 µM.
On to `c1ccc2nc(Cn3c[n+](Cc4ccc5ccccc5n4)c4ccccc43)ccc2c1`, for which the GI50 is 11.6 µM and the TGI amounted to 25.9 µM.
`O=C(O)CS(=O)(=O)C(c1ccccc1)c1ccccc1` yielded a TGI of more than 100 µM.
In the case of `C=C(C)[C@@H]1CC[C@]2(C(=O)NCCCN)CC[C@]3(C)[C@H](CC[C@@H]4[C@@]5(C)CC[C@H](O)C(C)(C)[C@@H]5CC[C@]43C)[C@@H]12`, the GI50 is 19.6 µM and the TGI turned out to be 66.5 µM.
With `O=C(Nc1cccc(Cl)c1)Nc1ncc(CCNc2ncnc3ccsc23)s1`, the GI50 was 0.748 µM and 0.493 µM; the TGI is 16.1 µM and > 10 µM.
Turning to `CCOC(=O)Cc1c[nH]c(=S)[nH]c1=O`, the GI50 was more than 100 µM and the TGI is more than 100 µM.
Consider `CCc1c(C)[nH]c(/C=C2\N=C(c3ccc[nH]3)C=C2OC)c1C`, for which the GI50 was 0.498 µM and the TGI came out at 10.5 µM.

Another test deals with ACHN renal. The experiment in a line: NCI anticancer screen, dose series, 48 h.
Regarding `c1ccc2[nH]c(-c3ccc(N4CCN(c5ccc(-c6nc7ccccc7[nH]6)cc5)CC4)cc3)nc2c1`, the GI50 is more than 100 µM and the TGI is more than 100 µM.
As to `CCN(CC)CCOc1ccc(C(=C(C)c2ccc(Cl)cc2)c2ccc(OCCN(CC)CC)cc2)cc1`, the GI50 is 0.614 µM and the TGI was 1.15 µM.
The like results for `C[C@]12CC[C@H]3[C@@H](CCC4=CC(=O)CC[C@@H]43)[C@@H]1CC[C@@H]2OC(=O)N(CCCl)N=O` were, in that order, 0.359 µM and more than 37.7 µM.
In the case of `CC12CCC(=O)C=C1CCC1C2CCC2(C)C(C(=O)Cn3cnc4c(=S)nc[nH]c43)CCC12` (configuration not stated), the TGI was more than 100 µM.
In the case of `CCc1ccc(NCc2cc(OC)c(OC)c(OC)c2)cc1`, the TGI is 66.7 µM and 77.4 µM.
Still for that read-out and setting: next, `Cn1c(=O)c2[nH]c(/N=N/N3CCN(CCO)CC3)nc2n(C)c1=O`: more than 100 µM.
For the compound `c1ccc2nc(Cn3c[n+](Cc4ccc5ccccc5n4)c4ccccc43)ccc2c1`, the GI50 was 14.6 µM and the TGI was determined as 31.1 µM.
Regarding `O=C(O)CS(=O)(=O)C(c1ccccc1)c1ccccc1`, the TGI is more than 100 µM.
`C=C(C)[C@@H]1CC[C@]2(C(=O)NCCCN)CC[C@]3(C)[C@H](CC[C@@H]4[C@@]5(C)CC[C@H](O)C(C)(C)[C@@H]5CC[C@]43C)[C@@H]12`: the GI50 is 21.7 µM and the TGI worked out at 59.9 µM.
For the compound `O=C(Nc1cccc(Cl)c1)Nc1ncc(CCNc2ncnc3ccsc23)s1`, the GI50 is 2.3 µM and 2.06 µM; the TGI is 16.8 µM and > 10 µM.
Take `CCOC(=O)Cc1c[nH]c(=S)[nH]c1=O`: the GI50 was more than 100 µM and the TGI was more than 100 µM.
As for `CCc1c(C)[nH]c(/C=C2\N=C(c3ccc[nH]3)C=C2OC)c1C`, the GI50 was 0.316 µM and the TGI was found to be 2.19 µM.

The test system of a further test is K-562 leukemia. The experiment in a line: NCI anticancer screen, dose series, 48 h.
Turning to `c1ccc2[nH]c(-c3ccc(N4CCN(c5ccc(-c6nc7ccccc7[nH]6)cc5)CC4)cc3)nc2c1`, the GI50 was 38.4 µM and the TGI is more than 100 µM.
Regarding `CCN(CC)CCOc1ccc(C(=C(C)c2ccc(Cl)cc2)c2ccc(OCCN(CC)CC)cc2)cc1`, the GI50 was 0.627 µM and the TGI worked out at 1.74 µM.
Consider `C[C@]12CC[C@H]3[C@@H](CCC4=CC(=O)CC[C@@H]43)[C@@H]1CC[C@@H]2OC(=O)N(CCCl)N=O`, for which the GI50 is 2.9 µM and the TGI came to 56 µM.
For the compound `CC12CCC(=O)C=C1CCC1C2CCC2(C)C(C(=O)Cn3cnc4c(=S)nc[nH]c43)CCC12` (configuration not stated), the TGI is more than 100 µM.
Turning to `CCc1ccc(NCc2cc(OC)c(OC)c(OC)c2)cc1`, the GI50 was 0.111 µM; the TGI is 26.4 µM and 52.4 µM.
Consider `Cn1c(=O)c2[nH]c(/N=N/N3CCN(CCO)CC3)nc2n(C)c1=O`, for which the TGI was more than 100 µM.
Take `c1ccc2nc(Cn3c[n+](Cc4ccc5ccccc5n4)c4ccccc43)ccc2c1`: the GI50 is 1.25 µM and the TGI is 11.8 µM.
Compound `O=C(O)CS(=O)(=O)C(c1ccccc1)c1ccccc1` had a TGI of more than 100 µM.
As to `C=C(C)[C@@H]1CC[C@]2(C(=O)NCCCN)CC[C@]3(C)[C@H](CC[C@@H]4[C@@]5(C)CC[C@H](O)C(C)(C)[C@@H]5CC[C@]43C)[C@@H]12`, the GI50 was 9.84 µM and the TGI was found to be 31.3 µM.
On to `O=C(Nc1cccc(Cl)c1)Nc1ncc(CCNc2ncnc3ccsc23)s1`, for which the GI50 was 3.54 µM and 2.4 µM; the TGI is more than 100 µM.
As for `CCOC(=O)Cc1c[nH]c(=S)[nH]c1=O`, the GI50 was more than 100 µM and the TGI is more than 100 µM.

These data come from PubChem BioAssay (NCI).
